Test system: human eosinophil EOL-1 (DSMZ no. ACC 386) cells
Test: In Vivo Xenograft Studies, Example A-2
Conditions: EOL-1 cells subcutaneous in flank of mice; first test compound 50-120 mg/kg orally or subcutaneously, second test compound 40 or 60 mg/kg orally twice per day; versus vehicle (FIG. 2)
Method: Example A-2: In Vivo Xenograft Studies
Mice were injected subcutaneously in the flank with human eosinophil EOL-1 (DSMZ no. ACC 386) cells (NCI). Injections with cells (circles, FIG. 2A) and with vehicle alone (triangles, FIG. 2B) were monitored, and when tumors reached a critical size (for example, about 1000 mm^3), mice were randomized into treatment groups, including vehicle control and reference standard groups. The groups, as shown in FIG. 2B are as follows: Group 1, vehicle administered orally every other day; Group 2, first test compound ((S)-amino-N-(5-fluoro-7-(piperazin-1-yl)chroman-3-yl)-6-methylthieno[2,3-b]pyridine-2-carboxamide) at 120 mg/kg, administered orally every other day; Group 3, first test compound at 80 mg/kg, administered orally every other day; Group 4, first test compound at 80 mg/kg, administered subcutaneously twice per day, every other day thereafter; Group 5, first test compound at 60 mg/kg, administered subcutaneously twice per day for four consecutive days, with no administration for three days. […] The mice were weighed and tumors measured using vernier calipers on indicated days. Tumor volume was calculated according to the formula (length×width^2)/2.

Row | SMILES | tumor growth (tumor volume, (length×width^2)/2)
1 | CO[C@H]1CN(c2ccc3c(n2)CC[C@H](NC(=O)c2sc4nc(C)cnc4c2N)C3)C[C@@H]1N [second test compound, 7-amino-N-[(6S)-2-[(3S,4S)-3-amino-4-methoxypyrrolidin-1-yl]-5,6,7,8-tetrahydroquinolin-6-yl]-3-methylthieno[2,3-b]pyrazine-6-carboxamide] | slowing of tumor growth over time
2 | Cc1ccc2c(N)c(C(=O)N[C@@H]3COc4cc(N5CCNCC5)cc(F)c4C3)sc2n1 [first test compound, (S)-amino-N-(5-fluoro-7-(piperazin-1-yl)chroman-3-yl)-6-methylthieno[2,3-b]pyridine-2-carboxamide] | slowing of tumor growth over time

— patent publication US12162888B2, “Carboxamides as ubiquitin-specific protease inhibitors” (Valo Early Discovery, Inc., priority 2018, dated 2024)
